Experiments:
HBV rcDNA = experiment: microbe, parasite or virus in culture; format: cell-based, HBV genotype D, serotype ayw; HepG 2.2.15; details: for SYNERGY PLOT (99%) Bonferroni Adj. 55%: TDF 0 μM, Cmpd 1 by row r37-r42: 0.405, 0.135, 0.045, 0.015, 0.005, 0 μM
Experimental: In vitro triple agent combination studies were conducted using the method of Prichard and Shipman 1990 (Prichard M N, Shipman C, Jr. 1990. Antiviral Res 14:181-205). The HepG 2.2.15 cell line was derived from HepG2 cells with constitutive expression of HBV (genotype D, serotype ayw) (Sells M A, Chen M L, Acs G. 1987. Proc Natl Acad Sci USA 84:1005-9). […] The plates were incubated for 7 days in a humidified incubator at 37° C. and 5% CO2. The level of rcDNA present in the culture supernatants was measured using a Quantigene 2.0 bDNA assay kit (Affymetrix, Santa Clara, Calif.) with HBV specific custom probe set (genotype D ayw) and according to the manufacturer's instructions and read using a luminescence plate reader and the relative luminescence units (RLU) data generated from each well was calculated as % inhibition of the untreated control wells and analyzed using the MacSynergy II program to determine whether the combinations were synergistic, additive or antagonistic using the interpretive guidelines established by Prichard and Shipman (Prichard M N, Shipman C, Jr. 1990. […] Concurrently, in each experiment, the effect of inhibitor combinations on cell viability was assessed in triplicates that were used to determine the ATP content as a measure of cell viability using the Cell-Titer Glo reagent (Promega, Madison, Wis.) as per the manufacturer's instructions.

HBsAg = experiment: microbe, parasite or virus in culture; format: cell-based, HBV genotype D; primary human hepatocytes; details: Hepatitis B virus
Experimental: The day PHH seeding date was defined as day 0.
The PHH were infected with 400 HBV GE/cell of HBV genotype D type HBV on day 1.
The test articles were further diluted with the culture medium to the final test concentrations.
All the test articles were further diluted 100 times with the culture medium. The final concentration of DMSO in the culture medium was […].
The compounds were tested at 7 concentrations, 3-fold dilution, in triplicate.
Four two-way combinations were performed on a 5×5 matrix, in triplicate plates. Transfection reagent was present in all wells. The culture medium containing the articles were refreshed every 1 or 2 days.
HBsAg in the culture supernatants harvested on days 8 was measured using the HBsAg/ELISA kit (Autobio) according to the manual. The samples were diluted with PBS to get the signal in the range of the standard curve. Percent inhibition of HBsAg was calculated with the formula below:
% Inh. HBsAg=[1−HBsAg quantity of sample/[…] of DMSO control]×100
Results of double combination studies were analyzed using MacSynergy II software (Prichard and Shipman, 1992).

HBV DNA = experiment: Serum HBV DNA in pHBV1.3 hydrodynamic injection mouse model of HBV (Example 12); format: in vivo, NOD.CB17-Prkdc scid/J mice; HBV genotype D, serotype ayw; details: once daily oral from Day 0: RNA destabilizer 10 mg/kg, encapsidation inhibitor 100 mg/kg, nucleos(t)ide analog 0.4 mg/kg, group mean ± SEM, n=7 or 8, from negative control
Experimental: On Day −7, 10 micrograms of the plasmid pHBV1.3 (constructed based on details provided in Guidotti, L., et al., Journal of Virology, 1995, 69(10): 6158-6169) was administered to NOD.CB 17-Prkdc^scid/J mice via hydrodynamic injection (HDI; rapid 1.6 mL injection into the tail vein). […] As readouts of the anti-HBV effect of the treatments, serum HBV DNA and serum HBsAg were assessed. Serum HBV DNA concentration in mice was measured using a quantitative PCR assay following total DNA extraction using previously published primers and probe sequences (Tanaka, Y., et al., Journal of Medical Virology, 2004, 72: 223-229). Serum HBsAg concentration in mice was measured using a commercially available ELISA kit (HBsAg EIA 3.0 480 Test Kit, Bio-Rad).
Animals were treated with RNA destabilizer as follows: Starting on Day 0, a 10 mg/kg dosage of RNA destabilizer was administered orally to animals on a once-daily frequency for a total of seven doses across the duration of the study. Animals were treated with encapsidation inhibitor as follows: Starting on Day 0, a 100 mg/kg dosage of encapsidation inhibitor was administered orally to animals on a once-daily frequency for a total of seven doses across the duration of the study. Animals were treated with nucleos(t)ide analog as follows: Starting on Day 0, a 0.4 mg/kg dosage of nucleos(t)ide analog was administered orally to animals on a once-daily frequency for a total of seven doses across the duration of the study. The RNA destabilizer, the encapsidation inhibitor, and nucleos(t)ide analog were each dissolved in the same co-solvent formulation for administration and negative control animals were administered the co-solvent formulation alone. To calculate treatment-specific effects, the treated groups are compared against negative control (vehicle treated) animals.
The effect of these treatments was determined by collecting blood on Days −1 (prior to study's treatment phase), 4, and 7 and analyzing it for serum HBV DNA and HBsAg content.

[1] = Hepatitis B virus, HepG2.2.15, read-out: ADDITIVE INHIBITION

COCCCOc1cc2c(nc1OC)-c1cc(=O)c(C(=O)O)cn1[C@H](C(C)C)C2 [Compound 2]
AVERAGE % INHIBITION (HBV rcDNA; Cmpd 1 0 μM, Cmpd 2 0.0001 μM, TAF 0 μM): 31.76% | AVERAGE % INHIBITION (HBV rcDNA; Cmpd 1 0 μM, Cmpd 2 0.0002 μM, TAF 0 μM): 43.68% | AVERAGE % INHIBITION (HBV rcDNA; Cmpd 1 0 μM, Cmpd 2 0.0004 μM, TAF 0 μM): 58.53% | AVERAGE % INHIBITION (HBV rcDNA; Cmpd 1 0 μM, Cmpd 2 0.001 μM, TAF 0 μM): 71.85% | AVERAGE % INHIBITION (HBV rcDNA; Cmpd 1 0 μM, Cmpd 2 0.002 μM, TAF 0 μM): 78.06% | AVERAGE % INHIBITION (HBV rcDNA; Cmpd 1 0 μM, Cmpd 2 0.003 μM, TAF 0 μM): 83.72% | AVERAGE % INHIBITION (HBV rcDNA; Cmpd 1 0 μM, Cmpd 2 0.007 μM, TAF 0 μM): 85.49% | AVERAGE % INHIBITION (HBV rcDNA; Cmpd 1 0 μM, Cmpd 2 0.027 μM, TAF 0 μM): 87.17% | AVERAGE % INHIBITION (HBV rcDNA; Cmpd 1 0 μM, Cmpd 2 […], TAF 0 μM): 89.05% | SYNERGY PLOT (99%) Bonferroni Adj. 55% (HBV rcDNA; Cmpd 2 0.00002 μM): 0 | SYNERGY PLOT (99%) Bonferroni Adj. 55% (HBV rcDNA; Cmpd 2 0.00004 μM): 0 | SYNERGY PLOT (99%) Bonferroni Adj. 55% (HBV rcDNA; Cmpd 2 0.00008 μM): 0 | SYNERGY PLOT (99%) Bonferroni Adj. 55% (HBV rcDNA; Cmpd 2 0.00016 μM): 0 | SYNERGY PLOT (99%) Bonferroni Adj. 55% (HBV rcDNA; Cmpd 2 0.0003 μM): 0 | SYNERGY PLOT (99%) Bonferroni Adj. 55% (HBV rcDNA; Cmpd 2 0.0006 μM): 0 | SYNERGY PLOT (99%) Bonferroni Adj. 55% (HBV rcDNA; Cmpd 2 0.001 μM): 0 | SYNERGY PLOT (99%) Bonferroni Adj. 55% (HBV rcDNA; Cmpd 2 0.003 μM): 0 | SYNERGY PLOT (99%) Bonferroni Adj. 55% (HBV rcDNA; Cmpd 2 0.005 μM): 0 | AVERAGE % INHIBITION (HBV rcDNA; ETV @ 0 μM, Cmpd 2 0.0001 μM alone): 39.44% | AVERAGE % INHIBITION (HBV rcDNA; ETV @ 0 μM, Cmpd 2 0.0002 μM alone): 47.6% | AVERAGE % INHIBITION (HBV rcDNA; ETV @ 0 μM, Cmpd 2 0.0004 μM alone): 67.99% | AVERAGE % INHIBITION (HBV rcDNA; ETV @ 0 μM, Cmpd 2 0.001 μM alone): 74.24% | AVERAGE % INHIBITION (HBV rcDNA; ETV @ 0 μM, Cmpd 2 0.002 μM alone): 77.97% | AVERAGE % INHIBITION (HBV rcDNA; ETV @ 0 μM, Cmpd 2 0.003 μM alone): 83.78% | AVERAGE % INHIBITION (HBV rcDNA; ETV @ 0 μM, Cmpd 2 0.007 μM alone): 86.78% | AVERAGE % INHIBITION (HBV rcDNA; ETV @ 0 μM, Cmpd 2 0.027 μM alone): 88.04% | AVERAGE % INHIBITION (HBV rcDNA; ETV @ 0 μM, Cmpd 2 […] alone): 88.65% | inhibition at 20 pM (HBV rcDNA; [1]): 7.15% | inhibition at 40 pM (HBV rcDNA; [1]): 9.56% | inhibition at 0.00016 µM (HBV rcDNA; [1]): 36.2% | inhibition at 0.0003 µM (HBV rcDNA; [1]): 40.9% | inhibition at 0.0006 µM (HBV rcDNA; [1]): 64.5% | inhibition at 0.001 µM (HBV rcDNA; [1]): 69.8% | inhibition at 0.003 µM (HBV rcDNA; [1]): 74.5% | inhibition at 0.005 µM (HBV rcDNA; [1]): 77.5%

CC(C)OC(=O)[C@H](C)N[P@](=O)(CO[C@H](C)Cn1cnc2c(N)ncnc21)Oc1ccccc1 [TAF, tenofovir alafenamide]
EC50 (HBsAg): 4.12 nM

CC(C)OC(=O)OCOP(=O)(CO[C@H](C)Cn1cnc2c(N)ncnc21)OCOC(=O)OC(C)C.O=C(O)/C=C/C(=O)O [TDF, tenofovir disoproxil fumarate, reference compound]
Serum HBV DNA log reduction (HBV DNA; Day 4): 1.2 ± 0.2 log | Serum HBV DNA log reduction (HBV DNA; Day 7): 1.7 ± 0.1 log
